Test results published in ChEMBL document CHEMBL3244272, “Folate antagonists. 15. 2,3-Diamino-6-(2-naphthylsulfonyl)quinazoline and related 2,4-diamino-6-[(phenyl and naphthyl)sulfinyl and sulfonyl]quinazolines, a potent new class of antimetabolites with phenomenal antimalarial activity” (J Med Chem, 1979).
≈ marks a conversion by molar mass, not a printed value. Calls of active or inactive are those of the source. The calls are words filed in the database; no cut-off is given here.

What was measured:
[1] = system: Enterococcus faecalis; experiment: Antibacterial activity against Streptococcus faecalis MGH-2 assessed as growth inhibition; type: functional
[2] = system: Staphylococcus aureus; experiment: Antibacterial activity against Staphylococcus aureus UC-76 assessed as growth inhibition; type: functional
[3] = system: Staphylococcus aureus; experiment: Antibacterial activity against Staphylococcus aureus S18713 assessed as growth inhibition; type: functional
[4] = system: Pseudomonas aeruginosa; experiment: Antibacterial activity against Pseudomonas aeruginosa 28 assessed as growth inhibition; type: functional
[5] = system: Escherichia coli; experiment: Antibacterial activity against Escherichia coli Vogel assessed as growth inhibition; type: functional
[6] = system: Shigella sonnei; experiment: Antibacterial activity against Shigella sonnei C-10 assessed as growth inhibition; type: functional
[7] = system: Mycobacterium tuberculosis; experiment: Antibacterial activity against Mycobacterium tuberculosis H37Rv assessed as growth inhibition; type: functional
[8] = system: Plasmodium berghei; experiment: Antimalarial activity against trophozoite-induced Plasmodium berghei infected in sc dosed mouse assessed as minimum curative dose; type: functional
[9] = system: Plasmodium berghei; experiment: Antimalarial activity against trophozoite-induced Plasmodium berghei infected in mouse assessed as change in mean survival time at 640 mg/kg, sc single dose after 72 hrs of infection; type: functional; conditions: route subcutaneous
[10] = system: Plasmodium berghei; experiment: Antimalarial activity against trophozoite-induced Plasmodium berghei infected in mouse assessed as change in mean survival time at 320 mg/kg, sc single dose after 72 hrs of infection; type: functional; conditions: route subcutaneous
[11] = system: Plasmodium berghei; experiment: Antimalarial activity against trophozoite-induced Plasmodium berghei infected in mouse assessed as change in mean survival time at 160 mg/kg, sc single dose after 72 hrs of infection; type: functional; conditions: route subcutaneous
[12] = system: Plasmodium berghei; experiment: Antimalarial activity against trophozoite-induced Plasmodium berghei infected in mouse assessed as change in mean survival time at 80 mg/kg, sc single dose after 72 hrs of infection; type: functional; conditions: route subcutaneous
[13] = system: Plasmodium berghei; experiment: Antimalarial activity against trophozoite-induced Plasmodium berghei infected in mouse assessed as change in mean survival time at 40 mg/kg, sc single dose after 72 hrs of infection; type: functional; conditions: route subcutaneous
[14] = system: Plasmodium berghei; experiment: Antimalarial activity against trophozoite-induced Plasmodium berghei infected in mouse assessed as change in mean survival time at 20 mg/kg, sc single dose after 72 hrs of infection; type: functional; conditions: route subcutaneous
[15] = system: Plasmodium berghei; experiment: Antimalarial activity against trophozoite-induced Plasmodium berghei infected in mouse assessed as change in mean survival time at 10 mg/kg, sc single dose after 72 hrs of infection; type: functional; conditions: route subcutaneous
[16] = system: Plasmodium gallinaceum; experiment: Antimalarial activity against sporozoite-induced Plasmodium gallinaceum infected in chick assessed as change in cured at 60 mg/kg, sc single dose; type: functional; conditions: route subcutaneous
[17] = system: Plasmodium gallinaceum; experiment: Antimalarial activity against sporozoite-induced Plasmodium gallinaceum infected in chick assessed as change in cured at 30 mg/kg, sc single dose; type: functional; conditions: route subcutaneous
[18] = system: Plasmodium gallinaceum; experiment: Antimalarial activity against sporozoite-induced Plasmodium gallinaceum infected in chick assessed as change in cured at 15 mg/kg, sc single dose; type: functional; conditions: route subcutaneous
[19] = system: Plasmodium berghei; experiment: Antimalarial activity against trophozoite-induced Plasmodium berghei infected in mouse assessed as change in mean survival time at 5 mg/kg, sc single dose after 72 hrs of infection; type: functional; conditions: route subcutaneous
[20] = system: Plasmodium berghei; experiment: Antimalarial activity against trophozoite-induced Plasmodium berghei infected in mouse assessed as change in mean survival time at 2.5 mg/kg, sc single dose after 72 hrs of infection; type: functional; conditions: route subcutaneous
[21] = system: Plasmodium berghei; experiment: Antimalarial activity against trophozoite-induced Plasmodium berghei infected in mouse assessed as change in mean survival time at 1.25 mg/kg, sc single dose after 72 hrs of infection; type: functional; conditions: route subcutaneous
[22] = system: Plasmodium gallinaceum; experiment: Antimalarial activity against sporozoite-induced Plasmodium gallinaceum infected in chick assessed as change in cured at 120 mg/kg, sc single dose; type: functional; conditions: route subcutaneous
[23] = system: Plasmodium gallinaceum; experiment: Antimalarial activity against trophozoite-induced Plasmodium gallinaceum infected in chick assessed as mean survival time at 120 mg/kg, sc single dose (reference value: 4 days); type: functional; conditions: route subcutaneous
[24] = system: Plasmodium gallinaceum; experiment: Antimalarial activity against trophozoite-induced Plasmodium gallinaceum infected in chick assessed as cured at 120 mg/kg, sc single dose; type: functional, organism-based; parameters: dose 120 mg/kg
[25] = system: Gallus gallus; experiment: Toxicity in trophozoite-induced Plasmodium gallinaceum infected in chick assessed as death at 120 mg/kg, sc single dose measured within 48 hrs; type: organism-based; parameters: dose 120 mg/kg, route subcutaneous; conditions: chicken, in vivo
[26] = system: Plasmodium gallinaceum; experiment: Antimalarial activity against sporozoite-induced Plasmodium gallinaceum infected in chick assessed as change in cured at 7.5 mg/kg, sc single dose; type: functional; conditions: route subcutaneous
[27] = system: Plasmodium falciparum; experiment: Antimalarial activity against chloroquine-sensitive, pyrimethamine-resistant Plasmodium falciparum Malayan Camp CH/Q infected in Aotus monkey assessed as dose required to >50% cures compound treated for 7 days; type: functional
[28] = system: Plasmodium falciparum; experiment: Antimalarial activity against chloroquine-resistant, pyrimethamine-sensitive Plasmodium falciparum Vietnam Oak Knoll in Aotus monkey assessed as dose required to >50% cures compound treated for 7 days; type: functional
[29] = system: Plasmodium falciparum; experiment: Antimalarial activity against Plasmodium falciparum Malayan Camp CH/Q infected in po once daily dosed Owl monkey assessed as curative dose compound treated for 7 days; type: functional
[30] = system: Plasmodium falciparum; experiment: Antimalarial activity against Plasmodium falciparum Vietnam Oak Knoll in po once daily dosed Owl monkey assessed as curative dose compound treated for 7 days; type: functional
[31] = system: Plasmodium falciparum; experiment: Antimalarial activity against Plasmodium falciparum Vietnam Smith in po once daily dosed Owl monkey assessed as curative dose compound treated for 7 days; type: functional
[32] = system: Plasmodium vivax; experiment: Antimalarial activity against Plasmodium vivax New Guinea Chesson in po once daily dosed Owl monkey assessed as curative dose compound treated for 7 days; type: functional
[33] = system: Plasmodium vivax; experiment: Antimalarial activity against Plasmodium vivax VietnamPalo Alto in po once daily dosed Owl monkey assessed as curative dose compound treated for 7 days; type: functional

SMILES	MIC [1]	MIC [2]	MIC [3]	MIC [4]	MIC [5]	MIC [6]	MIC [7]	MCD [8]	MST [11]	MST [12]	MST [13]	MST [14]	MST [15]	MST [16]	MST [17]	MST [18]	MST [19]	MST [20]	MST [21]	MST [26]	also measured
Nc1nc(N)c2cc([S+]([O-])c3ccccc3-c3ccccc3)ccc2n1 (stereo unspecified)	< 0.25 µg/mL	2.5 µg/mL (≈ 6.94 µM)	5 µg/mL (≈ 13.9 µM)	> 25 µg/mL	> 25 µg/mL	> 25 µg/mL	25 µg/mL (≈ 69.4 µM)	640 mg/kg	3.3 days	0.5 days	0.3 days	0.3 days	0.3 days	3.7 days	0 days	0 days					MST [9]: 12.7 days; MST [10]: 5.7 days
Nc1nc(N)c2cc(S(=O)(=O)c3ccc(Cl)c(Cl)c3)ccc2n1	< 0.25 µg/mL	0.5 µg/mL (≈ 1.35 µM)	1 µg/mL (≈ 2.71 µM)	> 25 µg/mL	2.5 µg/mL (≈ 6.77 µM)	20 µg/mL (≈ 54.2 µM)	20 µg/mL (≈ 54.2 µM)	10 mg/kg				11.2 days	10.3 days				5.9 days	3.5 days	1.1 days		MST [22]: 0 days
COc1cccc(S(=O)(=O)c2ccc3nc(N)nc(N)c3c2)c1	< 0.25 µg/mL	1 µg/mL (≈ 3.03 µM)	2 µg/mL (≈ 6.05 µM)	> 25 µg/mL	2.5 µg/mL (≈ 7.57 µM)	> 25 µg/mL	25 µg/mL (≈ 75.7 µM)	320 mg/kg	13.2 days	12.5 days	8.9 days	3.9 days	1.1 days	0 days	0 days	0 days					MST [10]: 23.9 days; MST [23]: 13.2 days; Activity [24]: Active; Activity [25]: Toxic
Cc1c([S+]([O-])c2ccc3ccccc3c2)ccc2nc(N)nc(N)c12 (stereo unspecified)	< 0.25 µg/mL	> 25 µg/mL	> 25 µg/mL	> 25 µg/mL	> 25 µg/mL	> 25 µg/mL		20 mg/kg						3.7 days	3.7 days	3.7 days	22.9 days	10.7 days	9.7 days	3.7 days	
C=C[C@H]1CN2CC[C@H]1C[C@H]2[C@H](O)c1ccnc2ccc(OC)cc12.Cl [QUININE HYDROCHLORIDE]																					Activity [27]: 80 mg/kg; Activity [28]: 40 mg/kg; CD90 [29]: 20 mg/kg; CD90 [30]: 80 mg/kg; CD90 [31]: >80 mg/kg; CD90 [32]: 40 mg/kg; CD90 [33]: 40 mg/kg
Nc1nc(N)c2cc([S+]([O-])c3ccccc3)ccc2n1 (stereo unspecified)	< 0.25 µg/mL	< 0.25 µg/mL	< 0.25 µg/mL	> 25 µg/mL	1.5 µg/mL (≈ 5.28 µM)	15 µg/mL (≈ 52.8 µM)	20 µg/mL (≈ 70.3 µM)	160 mg/kg		15.9 days	11.3 days	4.9 days	1.1 days		0 days	0 days				0 days	
Nc1nc(N)c2cc(S(=O)(=O)c3ccccc3-c3ccccc3)ccc2n1	0.25 µg/mL (≈ 0.664 µM)	> 25 µg/mL	> 25 µg/mL	> 25 µg/mL	> 25 µg/mL	> 25 µg/mL		640 mg/kg	0.7 days	0.5 days	0.3 days	0.3 days									MST [9]: 1.1 days; MST [10]: 0.7 days
Nc1nc(N)c2cc([S+]([O-])c3cccc(C(F)(F)F)c3)ccc2n1 (stereo unspecified)	< 0.25 µg/mL	< 0.25 µg/mL	< 0.25 µg/mL	> 25 µg/mL	> 25 µg/mL	> 25 µg/mL		40 mg/kg				21.4 days	12.7 days				9.1 days	4.1 days	1.1 days	6.4 days	
Nc1nc(N)c2cc(S(=O)(=O)c3cccc(-c4ccccc4)c3)ccc2n1	< 0.25 µg/mL	1 µg/mL (≈ 2.66 µM)	1.5 µg/mL (≈ 3.98 µM)	> 25 µg/mL	> 25 µg/mL	> 25 µg/mL	> 25 µg/mL	40 mg/kg			16.9 days	21.9 days	13.9 days		0 days	0 days	13.6 days	9.3 days	4.1 days	2.4 days	
COc1ccc([S+]([O-])c2ccc3nc(N)nc(N)c3c2)cc1 (stereo unspecified)								20 mg/kg	25.9 days	13.2 days	10.5 days	2.7 days	0.7 days								MST [23]: 24.2 days; Activity [24]: Active; Activity [25]: Toxic
Nc1nc(N)c2cc([S+]([O-])c3ccc(F)cc3)ccc2n1 (stereo unspecified)								20 mg/kg		16.9 days	11.5 days	8.9 days	5.5 days	0.7 days	0.7 days	1 days					
Nc1nc(N)c2cc([S+]([O-])c3c(F)c(F)cc(F)c3F)ccc2n1 (stereo unspecified)	< 0.25 µg/mL	1 µg/mL (≈ 2.81 µM)	1.5 µg/mL (≈ 4.21 µM)	> 25 µg/mL	> 25 µg/mL	> 25 µg/mL	25 µg/mL (≈ 70.2 µM)	80 mg/kg	16.7 days	13.9 days	10.7 days	0.9 days	0.5 days								MST [23]: 14.8 days; Activity [24]: Active; Activity [25]: Toxic
CCN(CC)CCCC(C)Nc1ccnc2cc(Cl)ccc12 (stereo unspecified) [CHLOROQUINE]																					Activity [27]: 5 mg/kg; Activity [28]: >20 mg/kg; CD90 [29]: 5 mg/kg; CD90 [30]: 2 mg/kg; CD90 [31]: >20 mg/kg; CD90 [32]: 2.5 mg/kg; CD90 [33]: 2.5 mg/kg
